Data: patent US20150010651A1, “Compositions and methods for the treatment of wounds” (priority 2009, published 2015)
“And” between values parts separate entries of the source, which are not always exact repeats. Identical values can stand only once. “Also recorded” adds a separate entry of the source.

Experiments:
[1] = test system: diabetic ulcer (non-healing wound); experiment: Case studies: powdered wound composition applied topically to infected non-healing wounds / diabetic ulcers of patients; format: in vivo, human
From the text: Thereafter, the wound compositions may be applied to the wound at least once a week until such time as the wound is satisfactorily healed. In one embodiment, a wound composition is applied once a week (after the initial daily application) for a period of at least seven weeks. It is understood that prior to each application, the wound may be rinsed with a sterile solution, such as saline, and allowed to dry. Thereafter, a wound composition may be applied and the wound wrapped in a suitable dressing.
A treatment plan was established for the patient. Under the treatment plan, the patient received: 1) Insulin 70/30 (Novoline) 50 IU morning, 25 IU night; and 2) intravenueously, Co-Amoxiclav 1.2 g+Gentamicin 80 mg+Metronidazole 400 mg in 100 ml N Saline/30 min (every 8 hours). After the injection of the intravenous antibiotics, the patient began taking oral antibiotics: 1) Co-Amoxiclav 625 mg (2 tablets) (twice daily); 2) Ciprofloxacin 500 mg once daily for 2 weeks; and 3) Ibuprofen 600 mg for 5 days (every 8 hours). Thereafter, the wound was cleaned with saline solution. A wound composition comprising a mixture of 300 mg powdered phenyloin (Dilantin®) and 500 mg of powdered Vitamin C was administered over the wound and the wound was dressed. The patient was advised to come back on a daily basis for dressing of the wound and reapplication of the wound composition.
(§1) The patient returned for 9 consecutive visits over the next nine days. Thereafter, the patient began weekly visits. With each visit, the wound was cleaned with saline solution and the powdered wound composition was applied topically to the wound, and redressed.
A treatment plan was established for the patient. Under the treatment plan, the patient received: 1) Insulin 70/30 (Novoline) 40 IU morning, 20IU night; and 2) intravenueously, Co-Amoxiclav 1.2 g+Gentamicin 80 mg+Metronidazole 400 mg in 100 ml N Saline/30 min. every 8 hours. After the injection of the intravenous antibiotics, the patient began taking oral antibiotics: 1) Co-Amoxiclav 625 mg (2 tablets) twice daily 2) Ciprofloxacin 500 mg once daily for 2 weeks; and 3) Ibuprofen 600 mg every 8 hours.; and (4) Co-diovan tablets (valsartan and hydrochlorothiazide) 80 mg/12.5 mg daily. Thereafter, the wound was cleaned with saline solution. A wound composition comprising 300 mg powdered phenyloin (Dilantin®) was administered over the wound and the wound was dressed. The patient was advised to come back on a daily basis for dressing of the wound and reapplication of the wound composition.
as §1, with “redressed. […] No further treatment was prescribed to the patient.” for “redressed.”

[2] = test system: diabetic ulcers; conditions: patients with diabetic ulcers; control group 45 days; cited from earlier work
[3] = one patient per Example, topical, weekly application, week 8

O=C1NC(=O)C(c2ccccc2)(c2ccccc2)N1 [phenyloin, 5.5-diphenyl-2,4-imidazolidinedione]
portion of the wound healed ([1]; Example 16 patient, topical, weekly application, week 13): approximately 60% | appearance of the wound ([1]; Example 16 patient, topical, weekly application, weeks 3-5): continued to appear generally healthy | recurrence of the wound after healing ([1]; one patient per Example, Dilantin alone): the wound returned in substantially the same location; also recorded: the wound returned in approximately the same location | time the wound took to heal completely ([1]; one patient per Example, Dilantin alone, topical): approximately 20 weeks and ~27 weeks and ~22 weeks and approximately 25 weeks | amputation outcome ([1]; one patient per Example, after treatment course): need to amputate the right leg below the knee; also recorded: need to amputate the left leg below the knee | new skin formation (wound healing by secondary intention) ([1]; one patient per Example, topical, daily visits for 9 days then weekly, week 1): signs of new skin formation | granulation tissue formed [1, 3]: approximately 20% | portion of the wound healed [1, 3]: approximately 35%; also recorded: approximately 25% | portion of the wound healed ([1]; one patient per Example, topical, weekly application, week 9): approximately 40% | portion of the wound healed ([1]; one patient per Example, topical, weekly application, week 10): approximately 60% | appearance of the wound ([1]; one patient per Example, topical, weekly application, weeks 2-4): continued to appear generally healthy | healing of the wound as noted ([1]; one patient per Example, topical, weekly application, weeks 5-7): beginning to heal very well, but was very slow healing | mean healing time [2]: 21 days
